Measurements as given in PubChem BioAssay (NCI).
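Assay format: 96-well plates, 48-hour exposure. TGI is the concentration that stops growth completely.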

Tests used:
Assay in all cases: NCI tumour cell line growth inhibition, 48 h
786-0 renal = system: 786-0 renal
A498 renal = system: A498 renal
A549 NSCLC = system: A549 NSCLC
ACHN renal = system: ACHN renal
CAKI-1 renal = system: CAKI-1 renal
CCRF-CEM leukemia = system: CCRF-CEM leukemia
COLO 205 colon = system: COLO 205 colon
DLD-1 colon = system: DLD-1 colon
DMS 114 small cell lung = system: DMS 114 small cell lung
DMS 273 small cell lung = system: DMS 273 small cell lung
EKVX NSCLC = system: EKVX NSCLC
HCC-2998 colon = system: HCC-2998 colon
HCT-116 colon = system: HCT-116 colon
HCT-15 colon = system: HCT-15 colon
HL-60(TB) leukemia = system: HL-60(TB) leukemia
HOP-18 NSCLC = system: HOP-18 NSCLC
HOP-62 NSCLC = system: HOP-62 NSCLC
HOP-92 NSCLC = system: HOP-92 NSCLC
HT29 colon = system: HT29 colon
IGROV1 ovarian = system: IGROV1 ovarian
K-562 leukemia = system: K-562 leukemia
KM12 colon = system: KM12 colon
KM20L2 colon = system: KM20L2 colon
LOX IMVI melanoma = system: LOX IMVI melanoma
LXFL 529 NSCLC = system: LXFL 529 NSCLC
M14 melanoma = system: M14 melanoma
M19-MEL melanoma = system: M19-MEL melanoma
MALME-3M melanoma = system: MALME-3M melanoma
MCF7 breast = system: MCF7 breast
MOLT-4 leukemia = system: MOLT-4 leukemia
NCI-H226 lung = system: NCI-H226 lung
NCI-H23 lung = system: NCI-H23 lung
NCI-H460 lung = system: NCI-H460 lung
NCI-H522 lung = system: NCI-H522 lung
NCI/ADR-RES ovarian = system: NCI/ADR-RES ovarian
OVCAR-3 ovarian = system: OVCAR-3 ovarian
OVCAR-4 ovarian = system: OVCAR-4 ovarian
OVCAR-5 ovarian = system: OVCAR-5 ovarian
OVCAR-8 ovarian = system: OVCAR-8 ovarian
P388 leukemia = system: P388 leukemia
RPMI-8226 leukemia = system: RPMI-8226 leukemia
RXF 393 renal = system: RXF 393 renal
RXF-631 renal = system: RXF-631 renal
SF-268 CNS = system: SF-268 CNS
SF-295 CNS = system: SF-295 CNS
SF-539 CNS = system: SF-539 CNS
SK-MEL-2 melanoma = system: SK-MEL-2 melanoma
SK-MEL-28 melanoma = system: SK-MEL-28 melanoma
SK-MEL-5 melanoma = system: SK-MEL-5 melanoma
SK-OV-3 ovarian = system: SK-OV-3 ovarian
SN12C renal = system: SN12C renal
SN12K1 renal = system: SN12K1 renal
SNB-19 CNS = system: SNB-19 CNS
SNB-75 CNS = system: SNB-75 CNS
SNB-78 CNS = system: SNB-78 CNS
SW-620 colon = system: SW-620 colon
TK-10 renal = system: TK-10 renal
U251 CNS = system: U251 CNS
UACC-257 melanoma = system: UACC-257 melanoma
UACC-62 melanoma = system: UACC-62 melanoma
UO-31 renal = system: UO-31 renal

For `CCOC(=O)COc1ccccc1/C=C1\CCC(CN(C)C)C1=O` (stereo unspecified), the TGI (786-0 renal) was 11.7 µM, the TGI (A498 renal) was 31.3 µM and the TGI (A549 NSCLC) was 42.8 µM. The TGI (ACHN renal) was 26.9 µM, the TGI (CAKI-1 renal) was 10.9 µM and the TGI (CCRF-CEM leukemia) was 8.42 µM. It also gave a TGI (COLO 205 colon) of 11.1 µM, a TGI (DLD-1 colon) of 12.2 µM and a TGI (DMS 114 small cell lung) of 24.2 µM. It also gave a TGI (DMS 273 small cell lung) of 8.17 µM, a TGI (EKVX NSCLC) of 34.7 µM and a TGI (HCC-2998 colon) of 7.98 µM. The TGI (HCT-116 colon) was 9.36 µM, the TGI (HCT-15 colon) was 9.86 µM and the TGI (HL-60(TB) leukemia) was 2.58 µM. It also gave a TGI (HOP-18 NSCLC) of 37.9 µM, a TGI (HOP-62 NSCLC) of 35.8 µM and a TGI (HOP-92 NSCLC) of 25.8 µM. The TGI (HT29 colon) was 22.6 µM, the TGI (IGROV1 ovarian) was 30.4 µM and the TGI (K-562 leukemia) was 6.51 µM. For the same compound, the TGI (KM12 colon) was 13.3 µM, the TGI (KM20L2 colon) was 30.2 µM and the TGI (LOX IMVI melanoma) was 5.43 µM. It also gave a TGI (LXFL 529 NSCLC) of 6.36 µM, a TGI (M14 melanoma) of 22.6 µM and a TGI (M19-MEL melanoma) of 8.98 µM. The TGI (MALME-3M melanoma) was 12 µM, the TGI (MCF7 breast) was 19.8 µM and the TGI (MOLT-4 leukemia) was 4.61 µM. It also gave a TGI (NCI-H226 lung) of 32.8 µM, a TGI (NCI-H23 lung) of 19.3 µM and a TGI (NCI-H460 lung) of 33.7 µM. For the same compound, the TGI (NCI-H522 lung) was 6.01 µM, the TGI (NCI/ADR-RES ovarian) was > 44 µM and the TGI (OVCAR-3 ovarian) was 20.6 µM. It also gave a TGI (OVCAR-4 ovarian) of 31.8 µM, a TGI (OVCAR-5 ovarian) of 32.4 µM and a TGI (OVCAR-8 ovarian) of 15.1 µM. The TGI (P388 leukemia) was 1.54 µM, the TGI (RPMI-8226 leukemia) was 3.48 µM and the TGI (RXF 393 renal) was 7.94 µM. The TGI (RXF-631 renal) was 34.4 µM, the TGI (SF-268 CNS) was 12.7 µM and the TGI (SF-295 CNS) was 35.5 µM. For the same compound, the TGI (SF-539 CNS) was 26.6 µM, the TGI (SK-MEL-2 melanoma) was 24.7 µM and the TGI (SK-MEL-28 melanoma) was 7.21 µM. It also gave a TGI (SK-MEL-5 melanoma) of 22.4 µM, a TGI (SK-OV-3 ovarian) of 31.4 µM and a TGI (SN12C renal) of 14.1 µM. It also gave a TGI (SN12K1 renal) of 3.47 µM, a TGI (SNB-19 CNS) of 20.6 µM and a TGI (SNB-75 CNS) of 29.5 µM. It also gave a TGI (SNB-78 CNS) of 62.6 µM, a TGI (SW-620 colon) of 6.64 µM and a TGI (TK-10 renal) of 25.6 µM. It also gave a TGI (U251 CNS) of 14.8 µM, a TGI (UACC-257 melanoma) of 16.3 µM and a TGI (UACC-62 melanoma) of 17.4 µM. The TGI (UO-31 renal) was 29.9 µM.
